Test results published in article PMC11960843, “Exploration of the tunability of BRD4 degradation by DCAF16 trans-labelling covalent glues” (European journal of medicinal chemistry, 2024).
pIC50: −log10 of the molar value.

How the values were obtained:
[1] = molecular target: T1, BRD4 (Homo sapiens, UniProt O60885); experiment: Western blot of BRD4 degradation, DCAF16 KO K562 cells; type: cell-based; parameters: an 11 amino acid peptide knock-in tag to a protein-of-interest using CRISPR insertion; endogenous in cells; conditions: DCAF16 KO K562, 1 μM, 16 h
Experimental: (§1) Western blotting was used to determine the degradation potencies of the covalent BRD4 degraders.
(§2) Cells were washed with PBS and lysed in RIPA lysis buffer (Thermo Fisher Scientific) with Halt Protease Inhibitor Cocktail (Thermo Fisher Scientific) and Benzonase (Sigma-Aldrich) for 20 min on ice. The insoluble fraction was removed by centrifugation, the protein concentration was quantified using a BCA protein assay kit (Thermo Fisher Scientific), and an equal amount of lysate was run on SDS–PAGE 4–12% Bis–Tris Protein Gels (Thermo Fisher Scientific) and then transferred to nitrocellulose membrane with a XCell II Blot Module Wet Tank Transfer System (Thermo Fisher Scientific). Membranes were blocked in Intercept (PBS) Blocking Buffer (LI-COR Biosciences) and incubated with primary antibodies overnight at 4 °C. The membranes were then washed in Tris-buffered saline with Tween-20 (TBS-T), incubated for 1 h with secondary IRDye-conjugated antibodies (LI-COR Biosciences) and washed three times in TBS-T for 5 min before near-infrared western blot detection on an Odyssey Imaging System (LI-COR Biosciences).

[2] = molecular target: T1, BRD4; experiment: Washout experiment, Western blot of BRD4 degradation in K562 cells; type: cell-based; parameters: an 11 amino acid peptide knock-in tag to a protein-of-interest using CRISPR insertion; endogenous in cells; conditions: K562, 1 μM, 4 h treatment, washout, 20 h compound-free vs 24 h no washout
Experimental: This experiment involves cell treatment and incubation with a ‘covalent’ compound, followed by a wash-step where the cells are washed and resuspended in compound-free cell media.
Cells were washed with PBS and lysed in RIPA lysis buffer (Thermo Fisher Scientific) with Halt Protease Inhibitor Cocktail (Thermo Fisher Scientific) and Benzonase (Sigma-Aldrich) for 20 min on ice. […] Membranes were blocked in Intercept (PBS) Blocking Buffer (LI-COR Biosciences) and incubated with primary antibodies overnight at 4 °C. The membranes were then washed in Tris-buffered saline with Tween-20 (TBS-T), incubated for 1 h with secondary IRDye-conjugated antibodies (LI-COR Biosciences) and washed three times in TBS-T for 5 min before near-infrared western blot detection on an Odyssey Imaging System (LI-COR Biosciences).

[3] = molecular target: T1, BRD4; experiment: Western blot of BRD4 degradation, wild-type K562 cells; type: cell-based; parameters: an 11 amino acid peptide knock-in tag to a protein-of-interest using CRISPR insertion; endogenous in cells; conditions: wild-type K562, 1 μM, 16 h
Experimental: as §1, §2

[4] = GSH stability (glutathione reactivity) assay by LC-MS/MS; type: physicochemical; conditions: phosphate buffered saline (PBS) without glutathione, extrapolated from 240 min assay
[5] = molecular target: T1, BRD4; experiment: BRD4-HiBiT assay, WT JURKAT cells; type: cell-based; parameters: an 11 amino acid peptide knock-in tag to a protein-of-interest using CRISPR insertion; endogenous in cells; host or cells: JURKAT, HiBiT-edited (wild type or DCAF16 knockout); conditions: 6 h
Experimental: (§3) Thereafter, we sought to characterize the BRD4 cellular degradation potencies in a dose-dependent manner at a shorter time point to minimize secondary effects. This was performed using the bioluminescent HiBiT-BRD4 assay, which consists of an 11 amino acid peptide knock-in tag to a protein-of-interest using CRISPR insertion. A complementary polypeptide (LgBiT) detects and interacts with all HiBiT tagged proteins, thereby reconstituting a luminescent NanoBiT enzyme, that can be quantified by its bioluminescence. WT and DCAF16 KO JURKAT cell lines expressing the BRD4-HiBiT system were generated to quantify dose-dependent BRD4 degradation after 6 h incubation (Fig. 4C).
(§4) After 6 h, the plates were subjected to Nano-Glo HiBiT Lytic detection system (Promega, #N3040) as described in manufacturer's manual. The assays were performed in biological triplicate. DC50 values were determined using a non-linear regression curve fit in GraphPad PRISM 9.5.1.

[6] = molecular target: BRD4BD1 (Homo sapiens, UniProt O60885); experiment: BRD4 AlphaScreen competition assay (JQ1-biotin displacement), BRD4BD1; type: binding; conditions: read-out: IC50 BRD4BD1
[7] = molecular target: T2, BRD4BD2-DCAF16 ternary complex (Homo sapiens, UniProt O60885+Q9NXF7); experiment: DDB1-DCAF16-BRD4BD2 TR-FRET ternary complex formation assay; type: biochemical
T2 construct: E3 ligase to bromodomain 2 (BRD4BD2); His6 (N); StrepII (N); Avi (N); made in house; host or cells: BRD4BD2: E. coli (pET100/D-TOPO)
From the text: To determine the relationship between covalent warheads and DCAF16 recruitment to BRD4BD2, we used a time-resolved fluorescence energy transfer (TR-FRET) assay to measure induced BRD4BD2-DCAF16 ternary complex formation (Fig. 3A).
Furthermore, we wanted to determine the kinetics of the BRD4BD2-DCAF16 interaction given its covalent nature. […] Additionally, to understand the relationship between ternary complex formation kinetics and warhead reactivity we measured the depletion of the covalent analogs in the presence of glutathione using MS (Table S2). […] Titrations of compounds to induce the DCAF16-BRD4BD complex were carried out by mixing 100 nM biotinylated BRD4BD2, 500 nM BODIPY-FL labeled DDB1ΔB-DCAF16 variants, and 2 nM terbium-coupled streptavidin (Invitrogen) in an assay buffer containing 50 mM HEPES pH 8.0, 200 mM NaCl, 0.1% Pluronic F-68 solution (Sigma), 0.5% bovine serum albumin (BSA) (w/v) and 1 mM TCEP. […] The TR-FRET signal of each data point was extracted by calculating the 520/490 nm ratio.

[8] = molecular target: T1, BRD4; experiment: BRD4-HiBiT assay, DCAF16 KO JURKAT cells; type: cell-based; parameters: an 11 amino acid peptide knock-in tag to a protein-of-interest using CRISPR insertion; endogenous in cells; host or cells: JURKAT, HiBiT-edited (wild type or DCAF16 knockout); conditions: 6 h
Experimental: as §3, §4

[9] = molecular target: BRD4BD2 (Homo sapiens, UniProt O60885); experiment: BRD4BD2-eGFP and mCherry flow reporter degradation assay, wild type K562 cells
From the text: This assay involves the co-expression of mCherry with BRD4BD1/2 fused to an enhanced green fluorescent protein (eGFP) tag, and the subsequent fluorescence measurement of BRD4BD1/2-eGFP normalized to mCherry as a readout for BRD4BD1/2 degradation. It allows for a quantitative, rapid, and facile screening of several MGDs, in a dose-and time-dependent manner. […] Thus, the BRD4BD2 stability system was used to test all subsequent GNE011 analogs in wild type and DCAF16−/− cells.
One day after infection, reporter cells were selected with puromycin at a concentration of 2 μg/mL.
K562 cells stably expressing degradation reporter were dosed with DMSO or degraders at various times and concentrations using D300e Digital Dispenser (HP). The fluorescent signal was quantified by flow cytometry (LSRFortessa flow cytometer, BD Biosciences) and analyzed using FlowJo (flow cytometry analysis software, BD Biosciences). The geometric mean of the eGFP and mCherry fluorescent signal for round and mCherry-positive cells was calculated. GFP expression was normalized to mCherry signal and drug treatments were compared to DMSO controls.

[10] = tested on: glutathione; experiment: GSH stability (glutathione reactivity) assay by LC-MS/MS; type: physicochemical; conditions: PBS containing 5 mM reduced glutathione; PBS + 5 mM GSH; extrapolated from 240 min assay
From the text: Furthermore, we wanted to determine the kinetics of the BRD4BD2-DCAF16 interaction given its covalent nature. […] Additionally, to understand the relationship between ternary complex formation kinetics and warhead reactivity we measured the depletion of the covalent analogs in the presence of glutathione using MS (Table S2). […].

T2 sequence (Q9NXF7 whole entry, other chains not shown): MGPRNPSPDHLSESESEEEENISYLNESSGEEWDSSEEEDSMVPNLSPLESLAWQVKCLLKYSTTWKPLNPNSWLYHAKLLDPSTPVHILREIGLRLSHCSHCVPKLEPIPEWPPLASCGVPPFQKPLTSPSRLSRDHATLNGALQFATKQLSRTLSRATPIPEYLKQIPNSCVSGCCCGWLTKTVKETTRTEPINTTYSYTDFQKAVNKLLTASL

## Cc1sc2c(c1C)C(c1ccc(C#CC(N)=O)cc1)=N[C@@H](CC(=O)OC(C)(C)C)c1nnc(C)n1-2 [MMH287, tert-butyl (S)-2-(4-(4-(3-amino-3-oxoprop-1-yn-1-yl)phenyl)-2,3,9-trimethyl-6H-thieno[3,2-f][1,2,4]triazolo[4,3-a][1,4]diazepin-6-yl)acetate]
[1]
  BRD4 degradation by Western blot in DCAF16 KO (in words): completely rescued by DCAF16 KO
[2]
  BRD4 degradation after washout compared to no washout (in words): nearly a complete rescue
[3]
  BRD4 degradation by Western blot (in words): nearly complete BRD4 degradation
[4]
  half-life: > 12.5 h
[5]
  BRD4 degradation (in words): noticeable BRD4 degradation
[6]
  pIC50: 7.89
[7]; 6 h degrader incubation
  TR-FRETmax (520 nm/490 nm ratio): 0.15
[7]; time-dependent TR-FRET
  BRD4BD2-DCAF16 ternary complex formation / DCAF16 recruitment (in words): almost no increase in ternary complex formation
[8]
  BRD4 degradation in DCAF16 KO (in words): completely rescued by DCAF16 KO
[9]; K562, read-out: maximal degradation (Dmax/16h) of BRD4BD2, K562 cells, 16 h incubation
  Dmax: 69%
[9]; read-out: DC50 of BRD4BD2 degradation, K562 cells, 16 h incubation
  DC50: 51 nM
[10]
  half-life: 6.33 h
